Values quoted from earlier work in patent US20120219529A1, “Silver ion compositions of pectins” (George H. Scherr Trust, priority 2011, published 2012).

For [Ag+].[Ag+].[O-2] [Ag2O], the “solubility in water” value is listed as “insoluble in water”.
